This note sets out measurements from ChEMBL document CHEMBL2176940, “Discovery of ligands for ADP-ribosyltransferases via docking-based virtual screening” (J Med Chem, 2012).

This experiment deals with T1, Protein mono-ADP-ribosyltransferase PARP15 (Homo sapiens) (UniProt Q460N3).
T1 sequence (whole entry): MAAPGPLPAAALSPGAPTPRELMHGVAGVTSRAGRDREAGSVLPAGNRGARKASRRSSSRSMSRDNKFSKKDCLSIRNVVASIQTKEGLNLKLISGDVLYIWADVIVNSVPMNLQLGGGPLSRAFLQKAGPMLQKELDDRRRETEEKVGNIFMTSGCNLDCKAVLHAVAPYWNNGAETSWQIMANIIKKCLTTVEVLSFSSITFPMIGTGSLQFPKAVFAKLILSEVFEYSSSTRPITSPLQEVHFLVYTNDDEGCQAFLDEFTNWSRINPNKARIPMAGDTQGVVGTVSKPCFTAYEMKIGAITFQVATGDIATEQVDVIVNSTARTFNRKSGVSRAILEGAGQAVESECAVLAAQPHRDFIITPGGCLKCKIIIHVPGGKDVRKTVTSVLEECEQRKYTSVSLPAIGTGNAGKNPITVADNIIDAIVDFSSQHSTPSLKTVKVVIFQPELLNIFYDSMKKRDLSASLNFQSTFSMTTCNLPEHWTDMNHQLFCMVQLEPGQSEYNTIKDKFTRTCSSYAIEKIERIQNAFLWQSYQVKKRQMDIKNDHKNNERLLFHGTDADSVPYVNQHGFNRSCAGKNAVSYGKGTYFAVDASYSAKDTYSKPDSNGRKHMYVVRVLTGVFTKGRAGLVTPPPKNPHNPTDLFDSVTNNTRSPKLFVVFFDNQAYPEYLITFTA
Description: Binding affinity at human recombinant ARTD7 expressed in Escherichia coli BL21 (DE3) R3 pRARE cells assessed as thermal stability shift by differential scanning fluorimetry

On to `NC(=O)c1cccc(NC(=O)/C=C\C(=O)O)c1`, for which the shift in melting temperature (ΔTm) was 0.8 °C.
